Activity calls are given as the source filed them. No cut-off for these calls is given here.
Experiments:
[1] = test system: C6; test: Antitumor activity against rat C6 cells xenografted in nude mouse assessed as reduction in tumor volume at 1 to 10 mg/kg, intratumorally administered for 8 days measured after 8 days relative to control; assay type: functional, organism-based
[2] = test system: A549; test: Elevation in lactosylceramide content of human A549 cell extract at 15 uM after 48 hrs by UPLC-MS analysis; assay type: functional
[3] = test system: A549; test: Drug uptake in 10^6 human A549 cells at 15 uM after 48 hrs by UPLC-MS analysis; assay type: ADME, cell-based; conditions: a549, 48 h
[4] = Drug uptake in cyst of nude mouse xenografted with rat C6 cells assessed as formation of olelyl alcohol at 10 mg/kg, intratumorally administered for 8 days by 1H MAS NMR spectroscopy; assay type: ADME, organism-based; set-up: dose 10 mg/kg; conditions: in vivo, other, 192 h
[5] = test system: A549; test: Reduction in ganglioside GM3 content of human A549 cell extract at 15 uM after 48 hrs by UPLC-MS analysis; assay type: functional, cell-based
[6] = test system: C6; test: Antitumor activity against rat C6 cells xenografted in nude mouse assessed as reduction in tumor size at 1 mg/kg, intratumorally administered for 14 days; assay type: functional, organism-based; set-up: dose 1 mg/kg
[7] = test system: A549; test: Reduction in ganglioside GM2 content of human A549 cell extract at 15 uM after 48 hrs by UPLC-MS analysis; assay type: functional, cell-based
[8] = test system: A549; test: Antiproliferative activity against human A549 cells after 48 hrs by MTT assay; assay type: functional; conditions: A549, 48 h, read-out: ID50 (the source's name)
[9] = test system: C6; test: Antiproliferative activity against rat C6 cells after 48 hrs by MTT assay; assay type: functional; conditions: C6, 48 h, read-out: ID50 (the source's name)
[10] = test system: A549; test: Reduction in glucosylceramide content of human A549 cell extract at 15 uM after 48 hrs by UPLC-MS analysis; assay type: functional, cell-based
[11] = test system: C6; test: Antitumor activity against rat C6 cells xenografted in nude mouse assessed as delay in tumor growth at 1 to 10 mg/kg, intratumorally administered for 8 days measured after 8 days relative to control; assay type: functional, organism-based
[12] = test system: A549; test: Elevation in glucosylceramide content of human A549 cell extract at 15 uM after 48 hrs by UPLC-MS analysis; assay type: functional, cell-based
[13] = Stability of the compound in presence of Jack bean N-acetyl-D-glucosaminidase at 1 mM after 48 hrs by HPLC analysis; assay type: ADME; conditions: 1000 µM
[14] = test system: N-acetyl-D-glucosaminidase; test: Stability of the compound in presence of Jack bean N-acetyl-D-glucosaminidase assessed as compound hydrolyzed to N-acetyl-D-glucosamine at 1 mM after 48 hrs by HPLC analysis; assay type: ADME; conditions: Jack bean N-acetyl-D-glucosaminidase (isolated enzyme), read-out: Activity
[15] = test system: C6; test: Antitumor activity against rat C6 cells xenografted in nude mouse assessed as increase in choline-containing metabolite levels in tumor at 10 mg/kg, intratumorally administered for 14 days by 1H MAS NMR spectroscopy relative to control; assay type: functional, organism-based; set-up: dose 10 mg/kg
[16] = test system: C6; test: Antitumor activity against rat C6 cells xenografted in nude mouse assessed as increase in acetate levels in tumor at 10 mg/kg, intratumorally administered for 14 days by 1H MAS NMR spectroscopy relative to control; assay type: functional, organism-based; set-up: dose 10 mg/kg
[17] = test system: C6; test: Antitumor activity against rat C6 cells xenografted in nude mouse assessed as increase in lactate levels in tumor at 10 mg/kg, intratumorally administered for 14 days by 1H MAS NMR spectroscopy relative to control; assay type: functional, organism-based; set-up: dose 10 mg/kg
[18] = test system: C6; test: Antitumor activity against rat C6 cells xenografted in nude mouse assessed as reduction in tumor size at 10 mg/kg, intratumorally administered for 14 days relative to control; assay type: functional, organism-based; set-up: dose 10 mg/kg
[19] = test system: C6; test: Antitumor activity against rat C6 cells xenografted in nude mouse assessed as reduction of creatine levels in tumor at 10 mg/kg, intratumorally administered for 14 days by 1H MAS NMR spectroscopy relative to control; assay type: functional, organism-based; set-up: dose 10 mg/kg

| Compound | Activity [1] | Activity [2] [%] | Drug uptake [3] [pmol] | Drug uptake [4] | Activity [5] | Activity [6] | Activity [7] | IC50 [8] [µM] | IC50 [9] [µM] | Activity [10] | Activity [11] | Activity [12] | Stability [13] | metabolised at 48 h, 1000 µM [14] [%] | Activity [15] | Activity [16] | Activity [17] | Activity [18] | Activity [19] |
| --- | --- | --- | --- | --- | --- | --- | --- | --- | --- | --- | --- | --- | --- | --- | --- | --- | --- | --- | --- |
| CCCCCCCC/C=C\CCCCCCCCO[C@H]1O[C@H](CO)[C@@H](O)[C@H](O)[C@H]1NC(C)=O | inactive | 40 | 2916 | Active | Active | inactive | Active | 25 | 16 | inactive | inactive |  |  |  |  |  |  |  |  |
| CCCCCCCC/C=C\CCCCCCCCS[C@@H]1O[C@H](CO)[C@@H](O)[C@H](O)[C@H]1NC(C)=O |  | 40 | 3333 |  | Active |  | Active | 30 | 26 |  |  | inactive | Stable |  |  |  |  |  |  |
| CCCCCCCC/C=C\CCCCCCCCO[C@@H]1O[C@H](CO)[C@@H](O)[C@H](O)[C@H]1NC(C)=O |  | 40 | 952 |  | Active |  | Active | 50 | 38 |  |  | inactive |  | 32 |  |  |  |  |  |
| CCCCCCCC/C=C\CCCCCCCCS[C@H]1O[C@H](CO)[C@@H](O)[C@H](O)[C@H]1NC(C)=O |  | 40 | 3675 |  | Active | inactive | Active | 35 | 14 | inactive |  |  |  |  | Active | Active | Active | Active | Active |

Reference: ChEMBL document CHEMBL1828591, “Synthesis of antimitotic thioglycosides: in vitro and in vivo evaluation of their anticancer activity” (J Med Chem, 2011)
